Measured values published in ChEMBL document CHEMBL3621158, “Synthesis of new betulinic acidpeptide conjugates and in vivo and in silico studies of the influence of peptide moieties on the triterpenoid core activity” (2015).

Experiments:
Assay type in all cases: functional
Mus musculus [1] = test: Anti-inflammatory activity in mouse model of histamine-induced paw edema assessed as inhibition of inflammation at 50 mg/kg, ip dosed 1 hr before histamine injection relative to 50 mg/kg, ip indomethacin
Mus musculus [2] = test: Anti-inflammatory activity in mouse model of histamine-induced paw edema assessed as inhibition of inflammation at 50 mg/kg, ip dosed 1 hr before histamine injection
Mus musculus [3] = test: Anti-inflammatory activity in mouse model of histamine-induced paw edema assessed as inhibition of inflammation at 20 mg/kg, po dosed 1 hr before histamine injection

Structure (SMILES) | inhibition in vivo at 50 mg/kg (Mus musculus [1]) | inhibition in vivo at 50 mg/kg (Mus musculus [2]) | inhibition in vivo at 20 mg/kg (Mus musculus [3])
C=C(C)[C@@H]1CC[C@]2(C(=O)O)CC[C@]3(C)[C@H](CC[C@@H]4[C@@]5(C)CC[C@@](O)(c6cn(C[C@H](Cc7ccccc7)N(C(=O)[C@H](Cc7cc8ccccc8[nH]7)NC(=O)OC(C)(C)C)C(=O)C(C)(C)NCc7ccc(OC)cc7OC)nn6)C(C)(C)[C@@H]5CC[C@]43C)[C@@H]12 | 92% | 38.8% | –
C=C(C)[C@@H]1CC[C@]2(C(=O)O)CC[C@]3(C)[C@H](CC[C@@H]4[C@@]5(C)CC[C@@](O)(c6cn(C[C@H](C)N(C(=O)[C@@H](NC(=O)OC(C)(C)C)[C@@H](C)CC)C(=O)C(C)(C)NCc7ccc(OC)cc7OC)nn6)C(C)(C)[C@@H]5CC[C@]43C)[C@@H]12 | 74.3% | 31.2% | –
C=C(C)[C@@H]1CC[C@]2(C(=O)O)CC[C@]3(C)[C@H](CC[C@@H]4[C@@]5(C)CC[C@@](O)(c6cn(C[C@H](Cc7ccccc7)N(C(=O)[C@H](CO)NC(=O)OC(C)(C)C)C(=O)C(C)(C)NCc7ccc(OC)cc7OC)nn6)C(C)(C)[C@@H]5CC[C@]43C)[C@@H]12 | 55% | 23% | –
C#C[C@]1(O)CC[C@]2(C)[C@H]3CC[C@@H]4[C@H]5[C@H](C(=C)C)CC[C@]5(C(=O)O)CC[C@@]4(C)[C@]3(C)CC[C@H]2C1(C)C | 60% | 25.2% | –
C=C(C)[C@@H]1CC[C@]2(C(=O)O)CC[C@]3(C)[C@H](CC[C@@H]4[C@@]5(C)CC[C@@](O)(c6cn(C[C@H](C)N(C(=O)[C@H](Cc7ccccc7)NC(=O)OC(C)(C)C)C(=O)C(C)(C)NCc7ccc(OC)cc7OC)nn6)C(C)(C)[C@@H]5CC[C@]43C)[C@@H]12 | 6% | 2.5% | –
C=C(C)[C@@H]1CC[C@]2(C(=O)O)CC[C@]3(C)[C@H](CC[C@@H]4[C@@]5(C)CC[C@](O)(c6cn(C[C@H](C)N(C(=O)[C@@H](NC(=O)OC(C)(C)C)[C@@H](C)CC)C(=O)C(C)(C)NCc7ccc(OC)cc7OC)nn6)C(C)(C)[C@@H]5CC[C@]43C)[C@@H]12 | 34.5% | 14.5% | –
COc1ccc2c(c1)c(CC(=O)O)c(C)n2C(=O)c1ccc(Cl)cc1 [INDOMETHACIN] | 78% | 42% | 32.8%
C=C(C)[C@@H]1CC[C@]2(C(=O)O)CC[C@]3(C)[C@H](CC[C@@H]4[C@@]5(C)CC[C@@](O)(c6cn(CCNC(=O)C(C)(C)N(Cc7ccc(OC)cc7OC)C(=O)[C@H](Cc7c[nH]cn7)NC(=O)OC(C)(C)C)nn6)C(C)(C)[C@@H]5CC[C@]43C)[C@@H]12 | 79% | 33.4% | –
